In PubChem BioAssay AID2060494 (Molecular Pharmacology Branch, DTP, NCI, 2025) one finds viability, T/C data, which are given here for five molecules.

Broadly, the viability, T/C is the ratio of treated to control.

SMILES strings stand for the structures.
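Further: spheroids exposed to the agents for seven days before readout; percent of vehicle control viability with DMSO wells as 100%.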

The subject of the first test is 435261-313-R-J1-PDC complex spheroid viability. Description: Anticancer human tumor 435261-313-R-J1-PDC patient-derived colon adenocarcinoma cell line growth inhibition [GQUAD]. The note with it: second compound 0.316 µM; first compound 1 µM; active compounds read low. An outline of the steps: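 Multi-cell-type spheroids of tumor cells with HUVEC and mesenchymal stem cells, treated with drug combinations. Concentrations descend in half-log steps from near clinical Cmax, or from 10 microM where Cmax is unknown; viability read-out.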
As to `CC(C)n1c(=O)n(C)c2cnc3cc(F)c(-c4ccc(OCCCN5CCCCC5)nc4)cc3c21` + CN(C)c1ccc(Nc2c3ccc(NC(=O)CCN4CCCC4)cc3nc3cc(NC(=O)CCN4CCCC4)ccc23)cc1, the viability, T/C was 113%.
For the molecule `CC1COCCN1c1cc(-c2ccnn2C)c2ccnc(-c3ccn[nH]3)c2n1` (stereo unspecified) + CN(C)c1ccc(Nc2c3ccc(NC(=O)CCN4CCCC4)cc3nc3cc(NC(=O)CCN4CCCC4)ccc23)cc1, the viability, T/C is 44.5%.
Take `CC1COCCN1c1cc(C2(S(C)(=N)=O)CC2)nc(-c2ccnc3[nH]ccc23)n1` (stereo unspecified) + CN(C)c1ccc(Nc2c3ccc(NC(=O)CCN4CCCC4)cc3nc3cc(NC(=O)CCN4CCCC4)ccc23)cc1: the viability, T/C was 68.6%.
The same measure, in the same setting: as for `COc1ccc([C@@H](O)c2cc(-c3ncnc4cc(N5CCOCC5)ccc34)c(F)cc2Cl)nn1` + CN(C)c1ccc(Nc2c3ccc(NC(=O)CCN4CCCC4)cc3nc3cc(NC(=O)CCN4CCCC4)ccc23)cc1, the figure is 63.9%; as for `O=C(c1cc(Cc2n[nH]c(=O)c3ccccc23)ccc1F)N1CCN(C(=O)C2CC2)CC1` + CN(C)c1ccc(Nc2c3ccc(NC(=O)CCN4CCCC4)cc3nc3cc(NC(=O)CCN4CCCC4)ccc23)cc1, 84.2%.

Staying with this test, now noted: second compound 0.316 µM; first compound 3.16 µM; active compounds read low.
Regarding `CC(C)n1c(=O)n(C)c2cnc3cc(F)c(-c4ccc(OCCCN5CCCCC5)nc4)cc3c21` + CN(C)c1ccc(Nc2c3ccc(NC(=O)CCN4CCCC4)cc3nc3cc(NC(=O)CCN4CCCC4)ccc23)cc1, the viability, T/C was 73.7%.
As to `CC1COCCN1c1cc(-c2ccnn2C)c2ccnc(-c3ccn[nH]3)c2n1` (stereo unspecified) + CN(C)c1ccc(Nc2c3ccc(NC(=O)CCN4CCCC4)cc3nc3cc(NC(=O)CCN4CCCC4)ccc23)cc1, the viability, T/C is 32.8%.
Regarding `CC1COCCN1c1cc(C2(S(C)(=N)=O)CC2)nc(-c2ccnc3[nH]ccc23)n1` (stereo unspecified) + CN(C)c1ccc(Nc2c3ccc(NC(=O)CCN4CCCC4)cc3nc3cc(NC(=O)CCN4CCCC4)ccc23)cc1, the viability, T/C was 64.6%.
As to `COc1ccc([C@@H](O)c2cc(-c3ncnc4cc(N5CCOCC5)ccc34)c(F)cc2Cl)nn1` + CN(C)c1ccc(Nc2c3ccc(NC(=O)CCN4CCCC4)cc3nc3cc(NC(=O)CCN4CCCC4)ccc23)cc1, the viability, T/C was 55.3%.
As for `O=C(c1cc(Cc2n[nH]c(=O)c3ccccc23)ccc1F)N1CCN(C(=O)C2CC2)CC1` + CN(C)c1ccc(Nc2c3ccc(NC(=O)CCN4CCCC4)cc3nc3cc(NC(=O)CCN4CCCC4)ccc23)cc1, the viability, T/C is 85.2%.

Still in this test, the particulars now being: second compound 0.316 µM; first compound 10 µM; active compounds read low.
On to `CC(C)n1c(=O)n(C)c2cnc3cc(F)c(-c4ccc(OCCCN5CCCCC5)nc4)cc3c21` + CN(C)c1ccc(Nc2c3ccc(NC(=O)CCN4CCCC4)cc3nc3cc(NC(=O)CCN4CCCC4)ccc23)cc1, for which the viability, T/C is 38.3%.
As to `CC1COCCN1c1cc(-c2ccnn2C)c2ccnc(-c3ccn[nH]3)c2n1` (stereo unspecified) + CN(C)c1ccc(Nc2c3ccc(NC(=O)CCN4CCCC4)cc3nc3cc(NC(=O)CCN4CCCC4)ccc23)cc1, the viability, T/C is 22.9%.
With `CC1COCCN1c1cc(C2(S(C)(=N)=O)CC2)nc(-c2ccnc3[nH]ccc23)n1` (stereo unspecified) + CN(C)c1ccc(Nc2c3ccc(NC(=O)CCN4CCCC4)cc3nc3cc(NC(=O)CCN4CCCC4)ccc23)cc1, the viability, T/C was 53.7%.
With `COc1ccc([C@@H](O)c2cc(-c3ncnc4cc(N5CCOCC5)ccc34)c(F)cc2Cl)nn1` + CN(C)c1ccc(Nc2c3ccc(NC(=O)CCN4CCCC4)cc3nc3cc(NC(=O)CCN4CCCC4)ccc23)cc1, the viability, T/C was 26.7%.
Take `O=C(c1cc(Cc2n[nH]c(=O)c3ccccc23)ccc1F)N1CCN(C(=O)C2CC2)CC1` + CN(C)c1ccc(Nc2c3ccc(NC(=O)CCN4CCCC4)cc3nc3cc(NC(=O)CCN4CCCC4)ccc23)cc1: the viability, T/C was 69.9%.

Staying with this test, now noted: second compound 1 µM; first compound 0.0316 µM; active compounds read low.
Turning to `CC(C)n1c(=O)n(C)c2cnc3cc(F)c(-c4ccc(OCCCN5CCCCC5)nc4)cc3c21` + CN(C)c1ccc(Nc2c3ccc(NC(=O)CCN4CCCC4)cc3nc3cc(NC(=O)CCN4CCCC4)ccc23)cc1, the viability, T/C was 93.3%.
Same read-out and setting: as for `CC1COCCN1c1cc(-c2ccnn2C)c2ccnc(-c3ccn[nH]3)c2n1` (stereo unspecified) + CN(C)c1ccc(Nc2c3ccc(NC(=O)CCN4CCCC4)cc3nc3cc(NC(=O)CCN4CCCC4)ccc23)cc1, the figure is 64.6%; as for `CC1COCCN1c1cc(C2(S(C)(=N)=O)CC2)nc(-c2ccnc3[nH]ccc23)n1` (stereo unspecified) + CN(C)c1ccc(Nc2c3ccc(NC(=O)CCN4CCCC4)cc3nc3cc(NC(=O)CCN4CCCC4)ccc23)cc1, 109%; as for `COc1ccc([C@@H](O)c2cc(-c3ncnc4cc(N5CCOCC5)ccc34)c(F)cc2Cl)nn1` + CN(C)c1ccc(Nc2c3ccc(NC(=O)CCN4CCCC4)cc3nc3cc(NC(=O)CCN4CCCC4)ccc23)cc1, 72%.
With `O=C(c1cc(Cc2n[nH]c(=O)c3ccccc23)ccc1F)N1CCN(C(=O)C2CC2)CC1` + CN(C)c1ccc(Nc2c3ccc(NC(=O)CCN4CCCC4)cc3nc3cc(NC(=O)CCN4CCCC4)ccc23)cc1, the viability, T/C is 85%.

Still in this test, the particulars now being: second compound 1 µM; first compound 0.1 µM; active compounds read low.
For the molecule `CC(C)n1c(=O)n(C)c2cnc3cc(F)c(-c4ccc(OCCCN5CCCCC5)nc4)cc3c21` + CN(C)c1ccc(Nc2c3ccc(NC(=O)CCN4CCCC4)cc3nc3cc(NC(=O)CCN4CCCC4)ccc23)cc1, the viability, T/C was 89.9%.
On the same count and under the same terms, as for `CC1COCCN1c1cc(-c2ccnn2C)c2ccnc(-c3ccn[nH]3)c2n1` (stereo unspecified) + CN(C)c1ccc(Nc2c3ccc(NC(=O)CCN4CCCC4)cc3nc3cc(NC(=O)CCN4CCCC4)ccc23)cc1, the figure is 69.5%; as for `CC1COCCN1c1cc(C2(S(C)(=N)=O)CC2)nc(-c2ccnc3[nH]ccc23)n1` (stereo unspecified) + CN(C)c1ccc(Nc2c3ccc(NC(=O)CCN4CCCC4)cc3nc3cc(NC(=O)CCN4CCCC4)ccc23)cc1, 115%; as for `COc1ccc([C@@H](O)c2cc(-c3ncnc4cc(N5CCOCC5)ccc34)c(F)cc2Cl)nn1` + CN(C)c1ccc(Nc2c3ccc(NC(=O)CCN4CCCC4)cc3nc3cc(NC(=O)CCN4CCCC4)ccc23)cc1, 76.4%.
In the case of `O=C(c1cc(Cc2n[nH]c(=O)c3ccccc23)ccc1F)N1CCN(C(=O)C2CC2)CC1` + CN(C)c1ccc(Nc2c3ccc(NC(=O)CCN4CCCC4)cc3nc3cc(NC(=O)CCN4CCCC4)ccc23)cc1, the viability, T/C was 78%.

The test is the same for the next values; noted with them: second compound 1 µM; first compound 0.316 µM; active compounds read low.
In the case of `CC(C)n1c(=O)n(C)c2cnc3cc(F)c(-c4ccc(OCCCN5CCCCC5)nc4)cc3c21` + CN(C)c1ccc(Nc2c3ccc(NC(=O)CCN4CCCC4)cc3nc3cc(NC(=O)CCN4CCCC4)ccc23)cc1, the viability, T/C is 63.7%.
